Laboratory results from PubChem BioAssay (NCI).
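Results reflect a 48-hour exposure of cells in 96-well plates to compound at five concentrations. GI50 marks 50% less growth. TGI marks complete inhibition of growth.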

How the values were obtained:
Assay in all cases: DTP human tumour cell line panel, 48 h
MCF7 breast = tested on: MCF7 breast
T-47D breast = tested on: T-47D breast
EKVX NSCLC = tested on: EKVX NSCLC
CAKI-1 renal = tested on: CAKI-1 renal
SK-MEL-2 melanoma = tested on: SK-MEL-2 melanoma
HCT-15 colon = tested on: HCT-15 colon
HL-60(TB) leukemia = tested on: HL-60(TB) leukemia
IGROV1 ovarian = tested on: IGROV1 ovarian
HOP-62 NSCLC = tested on: HOP-62 NSCLC
786-0 renal = tested on: 786-0 renal

| SMILES | GI50 (MCF7 breast) [µM] | TGI (MCF7 breast) [µM] | GI50 (T-47D breast) [µM] | TGI (T-47D breast) [µM] | GI50 (EKVX NSCLC) [µM] | TGI (EKVX NSCLC) [µM] | GI50 (CAKI-1 renal) [µM] | TGI (CAKI-1 renal) [µM] | GI50 (SK-MEL-2 melanoma) [µM] | TGI (SK-MEL-2 melanoma) [µM] | GI50 (HCT-15 colon) [µM] | TGI (HCT-15 colon) [µM] | GI50 (HL-60(TB) leukemia) [µM] | TGI (HL-60(TB) leukemia) [µM] | GI50 (IGROV1 ovarian) [µM] | TGI (IGROV1 ovarian) [µM] | GI50 (HOP-62 NSCLC) [µM] | TGI (HOP-62 NSCLC) [µM] | GI50 (786-0 renal) [µM] | TGI (786-0 renal) [µM] |
| --- | --- | --- | --- | --- | --- | --- | --- | --- | --- | --- | --- | --- | --- | --- | --- | --- | --- | --- | --- | --- |
| CCc1cccc(CC)c1/C=C/c1cncc(C(=O)NC)c1 | 7.74 | > 25 | 11.9 | > 25 | 14.2 | > 25 | 9.62 | > 25 | 10.9 | > 22.6 | 9.71 | > 25 | > 13.6 | > 23.8 | > 21.7 | > 25 | 9.88 | > 25 | 14.2 | > 25 |
| COc1ccc(C(=O)C[C@]2(O)C(=O)Nc3c(Cl)ccc(Cl)c32)cc1 | 0.383 | > 100 | 0.498 | > 100 | 0.892 | > 100 | 0.492 | > 100 | 0.627 | > 100 | 0.35 | > 100 | 0.343 | 3.06 | 0.531 | > 100 | 1.06 | > 100 | 2.61 | > 100 |
| CC(C)(CO)N=Cc1ccccc1[O-].CC(C)(CO)N=Cc1ccccc1[O-].[Co+2] | 27.3 | > 100 | 10.1 | > 100 | > 84.4 | > 100 | 53.7 | > 100 | > 76.5 | > 100 | 69.7 | > 100 | 11.8 | 79.4 | 84.3 | > 100 | > 100 | > 100 | 42.1 | > 100 |
| COc1cc2nnn3c4ncccc4c(N=O)c3c2cc1OC | 0.327 | > 74.5 | 0.317 | > 29.9 | 3.97 | > 66.6 | 0.131 | 1.27 | 16.5 | > 68.1 | 2.2 | 21.1 | 0.0506 | > 100 | 0.896 | > 37 | 6.71 | 16.8 | 0.391 | 2.48 |
| CC[C@@]1(O)C(=O)OCc2c1cc1n(c2=O)Cc2cc3c(N)cccc3nc2-1 | 0.00482 | 4.85 | 0.00662 |  |  | 7.96 | 0.00849 | 0.858 |  | 1.99 |  | 33.7 |  | 0.51 |  | 6.26 | 0.00637 | 0.0489 | 0.0048 | 0.0457 |
| O=C(O)C1C2C=CC(O2)C1C(=O)Nc1ncccn1 (centres undefined) |  | > 100 |  | > 100 |  | > 100 |  | > 100 |  | > 100 |  | > 100 |  | > 100 |  | > 100 |  | > 100 |  | > 100 |
| C=CC(=O)Nc1cccc(Nc2nc(Nc3ccc(OCCOC(F)F)cc3)ncc2F)c1 | 3 | 41.2 | 1.83 | 9.98 | 4.3 | > 100 | 1.28 | 10.1 | 1.8 | 6.82 | 1.97 | > 100 | 2.02 | 10.4 | 1.88 | 9.61 | 2.38 | 17.2 | 1.32 | 12.1 |
